Experimental data: patent publication US6353124B1, “Therapeutic compound-fatty acid conjugates” (priority 1993, dated 2002)
Where two headings read alike, the source gives them in different places.

What was measured:
[1] = tested on: UVB induced oedema; assay: UVB induced oedema (net skin fold thickness increase) in SKH-1 hairless mice, topical application; assay type: in vivo; conditions: for Immediate Activity Results, highest to lowest (ranking): painted after 3 MED UVB, 4% ibuprofen equivalent (Ibu-ATP3 at 2%), FIG. 5; for effect on oedema at 2%: 2% ibuprofen, as the conjugate or as the free drug; for photoprotection against UVB induced oedema against interval of application: crude 2% (30% purity, contaminated with GTP2), 100 μl, days -5 to 0, FIG. 3
Protocol: The vehicle used was a variation of previously published vehicles and consisted of ethanol:DMSO at a 5:1 ratio. […] The oedema was then determined by measuring the skin fold thickness (SFT) of a folded mid-dorsal piece of skin using a hand-held micrometer. Measurements were taken at 0 hours, just prior to UVB exposure and at 24 hours post UVB exposure. A control group, painted with 60 or 100 μl of the vehicle, was used to determine the increase in skin oedema due to the inflammatory response. […] The pre UVB SFT measurement was subtracted from the 24 hour SFT measurement, to determine the Net Skin Fold Thickness increase (NSFT).

[2] = tested on: UVB induced burns; assay: Effect on UVB induced burns in mice, topical application; assay type: in vivo
Protocol: (§1) Method Groups of 3 female mice were exposed to 3 MED of UVB on their dorsal surface and then were immediately painted (by smoothing the topical solution over the dorsal surface) with 60 μl or 100 μl of vehicle or vehicle containing increasing concentrations of NSAID's or NSAID fatty acid conjugates. The vehicle used was a variation of previously published vehicles and consisted of ethanol:DMSO at a 5:1 ratio. The test NSAID's and their conjugates were either applied after UVB irradiation to reduce the possibility of sun-screening effects (Day 0), or 1 to 5 days prior to UVB exposure. The oedema was then determined by measuring the skin fold thickness (SFT) of a folded mid-dorsal piece of skin using a hand-held micrometer. Measurements were taken at 0 hours, just prior to UVB exposure and at 24 hours post UVB exposure. A control group, painted with 60 or 100 μl of the vehicle, was used to determine the increase in skin oedema due to the inflammatory response. […] The pre UVB SFT measurement was subtracted from the 24 hour SFT measurement, to determine the Net Skin Fold Thickness increase (NSFT).
Individual scores are presented for each mouse ie a result indicated as 5,4,3 is interperated as the first mouse having a severe burn, the second mouse a moderate to severe burn and the third mouse a moderate burn.

[3] = tested on: Skh-1 mouse; assay: Toxicity and tolerability of topically applied indomethacin in Skh-1 mice; assay type: in vivo; conditions: painted on dorsal surface, range 0.1% to 2.5% tested
Protocol: as §1
As a preliminary study the ability of indomethacin to protect against oedema in Skh-1 mouse was determined. Indomethacin over a concentration range from 0.1% to 2.5% was applied after the mice had been irradiated with UVB; non-irradiated controls were also run. […]

[4] = tested on: sunburn erythema; conditions: 2.5% in propylene glycol:ethanol:dimethylacetamide (19:19:2), 3 MED of UV light, humans; cited from earlier work
[5] = tested on: sunburn erythema; conditions: 2.5% in propylene glycol:ethanol:dimethylacetamide (19:19:2), 3 MED of UV light, guinea-pigs; cited from earlier work

ibuprofen-alanine-Tris [Ibu-AT]
Immediate Activity Results, highest to lowest (ranking) [1]: 4% Ibu=4% Ibu-ATP>4% Ibu-ATP2>4% Ibu-AT=2% Ibu-ATP3

COc1ccc2c(c1)c(CC(=O)O)c(C)n2C(=O)c1ccc(Cl)cc1 [indomethacin, 1-(4-Chlorobenzoyl)-5-methoxy-2-methyl-1H-indole-3-acetic acid]
anti-inflammatory effect at 0.1% ([1]; 0.1% applied after UVB, 24 hours): mild anti-inflammatory effect | erythema and oedema with concentration ([1]; 0.1% to 2.5% applied after UVB): decrease in erythema and oedema with increasing concentrations | protection against UVB induced oedema, applied 3 days prior to UVB ([1]; 1% indomethacin, 3 days prior to exposure, FIG. 2): approximately 50% | protection against UVB induced oedema, applied 5 days prior to UVB ([1]; 1% indomethacin, 5 days prior to exposure, FIG. 2): not present | protective effect on UVB induced oedema against interval of application ([1]; 100 μl of 1% solution, days -5 to -1 before UVB and Day 0, NSFT at 24 hours, FIG. 2): loses its protective effect on UVB induced oedema as the interval of application prior to exposure increases | concentration giving maximal protection against erythema and oedema ([1]; applied after UVB, 24 hours, range 0.1% to 2.5%): ≥ 1% | effect on burn repair ([2]; indomethacin levels that prevent oedema): little or no effect on burn repair | topical concentration lethal after 36 hours (gastrointestinal haemorrhage) [3]: ≥ 2% | protection against sunburn erythema [4]: total protection | protection against sunburn erythema [5]: total protection

α-Methyl-4-(2-methylpropyl)benzene acetic acid [Ibu cont]
effect on oedema at 2% [1]: little effect on oedema | Immediate Activity Results, highest to lowest (ranking) [1]: 4% Ibu=4% Ibu-ATP>4% Ibu-ATP2>4% Ibu-AT=2% Ibu-ATP3

ibuprofen-alanine-Tris-tripalmitate [Ibu-ATP3]
Immediate Activity Results, highest to lowest (ranking) [1]: 4% Ibu=4% Ibu-ATP>4% Ibu-ATP2>4% Ibu-AT=2% Ibu-ATP3

ibuprofen-alanine-Tris-dipalmitate [Ibu-ATP2]
Immediate Activity Results, highest to lowest (ranking) [1]: 4% Ibu=4% Ibu-ATP>4% Ibu-ATP2>4% Ibu-AT=2% Ibu-ATP3

indomethacin-glycine-Tris-dipalmitate [Indo-GTP2]
photoprotection against UVB induced oedema against interval of application [1]: most protective 5 days prior to irradiation with UVB | photoprotection against UVB induced oedema against interval of application ([1]; listed as indomethacin-glycine-Tris-dipalmitate): most pronounced at 5 days prior to exposure with UVB | prolonged and immediate protective activity against UVB induced oedema ([1]; high purity, 2% (indomethacin equivalent), painted 5 days prior to or immediately after UVB, compared with Indo-GTP3, Indo-EP1, Indo-GEP1, FIG. 4): highest levels of prolonged and immediate activity

ibuprofen-alanine-Tris-monopalmitate [Ibu ATP1]
effect on oedema at 2% [1]: little effect on oedema | Immediate Activity Results, highest to lowest (ranking) [1]: 4% Ibu=4% Ibu-ATP>4% Ibu-ATP2>4% Ibu-AT=2% Ibu-ATP3 | protective effect on UVB induced burns ([2]; 2%, painted after 3 MED UVB, compared with unmodified ibuprofen): protective effect on UVB induced burns to a much greater extent than unmodified ibuprofen
